Results published in PubChem BioAssay AID1194 (EPA DSSTox, 2008).
Active and inactive are the calls of the source.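 Rule for the calls: active = chemicals rated mutagenic or weakly mutagenic in the Salmonella bacterial test by one literature review, or positive overall by another; inconclusive = no clear call, values can overlap the other calls; inactive = the rest.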

Test system: Salmonella typhimurium Ames mutagenicity, literature compiled
Assay: DSSTox (CPDBAS) Carcinogenic Potency Database Salmonella Mutagenicity
Summary of the method: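 Calls derive from published evaluations rather than new testing; overall "positive" in EPA Gene-Tox, or "mutagenic"/"weakly mutagenic" per Zeiger, counts as active.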

| Structure (SMILES) | outcome |
| --- | --- |
| COc1cc2c(c3oc4cccc(O)c4c(=O)c13)C1C=COC1O2 (stereo not drawn) | active; inactive |
| O=NN1CCOCC1 | active |
| O=C1N(CCO)CCN1/N=C/c1ccc([N+](=O)[O-])o1 | active |
| O=C/C=C/O | inactive |
| NN | active; inactive |
| Nc1ccc2nc3ccccn3c2n1 | active |
| Cc1ccc(S(=O)(=O)NC(=O)NN2CCCCCC2)cc1 | inactive; active |
| CC(=O)OCc1ccccc1 | inactive; active |
| Nc1ccccc1-c1ccccc1 | active |
| NC(N)=S | inactive; active |
| Cc1nc(N)cc2[nH]c3ccccc3c12 | active |
| ClCC1CO1 (stereo not drawn) | active; inactive |
| O=NN(CCCl)C(=O)N[C@@H]1[C@@H](O)[C@H](O)[C@@H](CO)O[C@@H]1O | active; inactive |
| CC1(C)S[C@@H]2[C@H](NC(=O)[C@H](N)c3ccccc3)C(=O)N2[C@H]1C(=O)O | inactive |
| CCCCOC(=O)c1ccc(O)cc1 | inactive; active |
| Oc1ccccc1 | inactive |
| O=Cc1ccccc1 | inactive; active |
| O=P(OCC(Br)CBr)(OCC(Br)CBr)OCC(Br)CBr (stereo not drawn) | active |
| CCC[N+](=O)[O-] | inactive; active |
| NCCS(=O)(=O)O | inactive; active |
| ClC(Br)Br | inactive |
| [O-][Br+2]([O-])O | active |
| O=[O+][O-] | active; inactive |

| Structure (SMILES) | outcome |
| --- | --- |
| Nc1ccc(Cc2ccc(N)cc2)cc1 | active |
| C/C=C1/C[C@@H](C)[C@](O)(CO)C(=O)OCC2=CCN3CC[C@@H](OC1=O)[C@@H]23 | active; inactive |
| ClCCCl | active |
| O=[N+]([O-])c1ccc2c(c1)Cc1ccccc1-2 | active |
| O=S(=O)(c1ccc(Cl)cc1)c1ccc(Cl)cc1 | inactive |
| O=C1NC(c2ccc([N+](=O)[O-])s2)Nc2ccccc21 (stereo not drawn) | active |
| CCn1cc(C(=O)O)c(=O)c2ccc(C)nc21 | inactive |
| CCCCCC | inactive |
| CC(C)[N+](=O)[O-] | active |
| Nc1ccc(Oc2ccc(N)cc2)cc1 | active |
| CCCCC(CC)COP(=O)(OCC(CC)CCCC)OCC(CC)CCCC (stereo not drawn) | inactive; active |
| Cc1ncc[nH]1 | inactive |
| Cc1ccc(S(=O)(=O)Oc2ccc(N=Nc3ccc(-c4ccc(N=Nc5c(O)ccc6cc(S(=O)(=O)O)cc(S(=O)(=O)O)c56)c(C)c4)cc3C)cc2)cc1 | active |
| Clc1ccc(C(c2ccc(Cl)cc2)C(Cl)Cl)cc1 | inactive |
| CC(=O)Nc1nnc(-c2ccc([N+](=O)[O-])o2)s1 | active |
| C=CCO | inactive |
| c1ccc2occc2c1 | inactive; active |
| O=Nc1ccc(Nc2ccccc2)cc1 | active |
| CC(=O)Nc1ccc(O)cc1 | inactive; active |
| O=NN1CCCCCCC1 | active; inactive |
| NCCNc1cccc2ccccc12 | active |
| O=C(O)COc1ccc(Cl)cc1Cl | inactive |
| Oc1cc2c(cc1O)[C@H]1c3ccc(O)c(O)c3OC[C@@]1(O)C2 | inactive; active |

| Structure (SMILES) | outcome |
| --- | --- |
| Nc1ccc(N=Nc2ccccc2)c(N)n1 | inactive |
| COC(=O)c1ccc(C(=O)OC)cc1 | inactive; active |
| NC(=O)CCCCC(N)=O | inactive |
| [O]=[Mo](=[O])=[O] | inactive; active |
| CCCCN(N=O)C(=N)N[N+](=O)[O-] | active |
| O=NN1CCC1 | active; inactive |
| O=[N+]([O-])c1ccc(-c2nc(N(CCO)CCO)c3ccccc3n2)s1 | inactive; active |
| CC(C)N(C(=O)SC/C(Cl)=C/Cl)C(C)C | active |
| CC(=O)O[C@@H]1[C@@H](O)C2OC3C=C(C)C(=O)C(O)[C@@]3(CO)[C@]1(C)[C@]21CO1 (stereo partly drawn) | inactive; active |
| O=[N+]([O-])c1ccc2ncccc2c1 | active |
| COC(=O)[C@H]1[C@H]2C[C@@H]3c4[nH]c5cc(OC)ccc5c4CCN3C[C@H]2C[C@@H](OC(=O)c2cc(OC)c(OC)c(OC)c2)[C@@H]1OC | inactive |
| CCCCOC(=O)c1ccccc1C(=O)OCc1ccccc1 | inactive |
| COc1ccc(C(=O)/C(Br)=C\C(=O)O)cc1 | active |
| NC(=S)NNC(N)=S | inactive; inconclusive |
| C=CC(O)c1ccc2c(c1)OCO2 (stereo not drawn) | inactive |
| NNC(N)=O | inactive |
| C=CC(=O)O | inactive |
| COP(=S)(OC)SCn1nnc2ccccc2c1=O | active; inactive |
| Nc1ccc(N)c2c1C(=O)c1c(N)ccc(N)c1C2=O | active |
| CCCN(CCC)N=O | active |
| CCCCN(CCCC)N=O | active; inactive |
| C=C(C)[C@H]1CC=C(C)CC1 | inactive; active |
| CCCCC(CC)COC(=O)c1ccccc1C(=O)OCC(CC)CCCC (stereo not drawn) | inactive; active |

| Structure (SMILES) | outcome |
| --- | --- |
| CC#N | inactive |
| OC(O)C(Cl)(Cl)Cl | active |
| C=CCOC(=O)c1ccccc1C(=O)OCC=C | inactive; active |
| CC1CN(N=O)CC(C)N1C(=O)c1ccccc1 (stereo not drawn) | inactive |
| ClC1C(Cl)C(Cl)C(Cl)C(Cl)C1Cl (stereo not drawn) | inactive; active |
| ClCc1cccnc1 | active; inactive |
| CC(C)=CCl | active; inactive |
| CCCC[C@H](C)[C@@H](OC(=O)C[C@H](CC(=O)O)C(=O)O)[C@@H](C[C@H](C)C[C@@H](O)CCCC[C@@H](O)C[C@H](O)[C@H](C)N)OC(=O)C[C@H](CC(=O)O)C(=O)O | inactive |
| Clc1ccc(C(c2ccccc2Cl)C(Cl)Cl)cc1 (stereo not drawn) | inactive |
| Cc1ccc(O)c(O)c1 | inactive; active |
| COCCl | inactive; active |
| CC(C)CN(N=O)C(=N)N[N+](=O)[O-] | active |
| Nc1ccccc1C(=O)OC/C=C/c1ccccc1 | inactive |
| CC12CCC(CC1)C(C)(C)O2 | inactive; active |
| CN(C)C(=S)[S][Pb][S]C(=S)N(C)C | active |
| Clc1ccccc1Cl | inactive |
| c1ccccc1 | inactive; active |
| NNCCc1ccccc1 | active; inactive |
| CN(C#N)N=O | active; inactive |
| CCNC(=O)Nc1ncc([N+](=O)[O-])s1 | active; inactive |
| C=CC1CC=CCC1 (stereo not drawn) | inactive |
| CN(N=O)C(=O)N[C@@H]1[C@@H](O)[C@H](O)[C@@H](CO)O[C@@H]1O | active |
| COc1ccc([N+](=O)[O-])cc1N | active; inactive |

| Structure (SMILES) | outcome |
| --- | --- |
| ClC/C=C/CCl | active; inactive |
| O=c1oc2c(O)c(O)cc3c(=O)oc4c(O)c(O)cc1c4c23 | inactive |
| NC1CCCCC1 | inactive; active |
| O=C(CCl)c1ccccc1 | inactive |
| O=P(O)(O)O | active; inactive |
| C=CCN(CC=C)N=O | active |
| O=C1CN(/N=C/c2ccc([N+](=O)[O-])o2)C(=O)N1 | active |
| Cc1cc(O)c(C)c2c1OC(C)(CCCC(C)CCCC(C)CCCC(C)C)CC2 (stereo not drawn) | inactive; active |
| O=c1cc[nH]c(=O)[nH]1 | inactive; active |
| O=C1c2ccccc2C(=O)N1SC(Cl)(Cl)Cl | active |
| CCC1(c2ccccc2)C(=O)NC(=O)NC1=O | active |
| Oc1c(Cl)cc(Cl)c(Cl)c1Cc1c(O)c(Cl)cc(Cl)c1Cl | inactive; active |
| OC[C@@H](O)[C@@H](O)[C@H](O)[C@H](O)CO | inactive; active |
| Clc1cccc(-c2ccc(Cl)c(Cl)c2Cl)c1Cl | inactive; active |
| C[C@H](CCC(=O)O)[C@H]1CC[C@H]2[C@@H]3CC[C@@H]4C[C@H](O)CC[C@]4(C)[C@H]3CC[C@]12C | inactive |
| OCc1ccco1 | inactive; active |
| OC(c1ccc(Cl)cc1)(c1ccc(Cl)cc1)C(Cl)(Cl)Cl | inactive; active |
| CC1=C(/C=C/C(C)=C/C=C/C(C)=C/C=C/C=C(C)/C=C/C=C(C)/C=C/C2=C(C)CCCC2(C)C)C(C)(C)CCC1 | active; inactive |
| O=[N+]([O-])c1ccc(Cl)cc1 | active |
| COc1cc(CNC(=O)CCCC/C=C/C(C)C)ccc1O | inactive; active |
| [N-]=[N+]=CC(=O)OC[C@H](N)C(=O)O | active |
| N[C@@H](Cc1ccc(N(CCCl)CCCl)cc1)C(=O)O | active; inactive |
| C[C@H]1C(=O)O[C@@H]2CCN3CC=C(COC(=O)[C@](C)(O)[C@]1(C)O)[C@H]23 | inactive; active |

| Structure (SMILES) | outcome |
| --- | --- |
| CCOc1ccc(NC(C)=O)cc1 | active; inactive |
| Cc1ccc(N)cc1Cl | inactive; active |
| [Cl-].[Cl-].[Sn+2] | inactive |
| C1COCCO1 | inactive; inconclusive |
| CCc1ccc(C(c2ccc(CC)cc2)C(Cl)Cl)cc1 | active |
| CCCNC(=O)NS(=O)(=O)c1ccc(Cl)cc1 | inactive; active |
| Nc1ccc(O)c(N)c1 | active; inactive |
| O=NN1CCCN(N=O)CC1 | active |
| CCn1c2ccccc2c2cc(N)ccc21 | active |
| O=S1(=O)OCCO1 | inactive |
| CCCCC1C(=O)N(c2ccccc2)N(c2ccccc2)C1=O | inactive |
| Cc1ccc2c(c1[N+](=O)[O-])C(=O)c1ccccc1C2=O | active; inactive |
| OC[P+](CO)(CO)CO | inactive; active |
| ClC1=C(Cl)[C@]2(Cl)[C@@H]3[C@H]4C[C@H]([C@@H]5O[C@H]45)[C@@H]3[C@@]1(Cl)C2(Cl)Cl | inactive; active |
| Cc1cc(Cc2ccc(N)c(C)c2)ccc1N | active |
| O=C1C(c2[nH]c3ccc(S(=O)(=O)O)cc3c2O)=Nc2ccc(S(=O)(=O)O)cc21 | inactive |
| ClC(Cl)(Cl)c1ccccc1 | active |
| OCCO | inactive |
